Source: patent publication US20250296971A1, “GASTRIC INHIBITORY PEPTIDE RECEPTOR LIGANDS” (priority 2021, published 2025)
*1 amine or outer side, *2 acyl side, *3 side chain or, on linkers, in order; H or OH if unused. Where a SMILES comes first, the peptide text is derived from it. Bridges are numbered along the chain shown (N, C = ends). [ ]: non-standard residue; d: D form. The star is where a group is joined. NH(1-deoxy-D-glucityl) = OC[C@@H](O)[C@@H](O)[C@H](O)[C@@H](O)CN*; DOTA = O=C(O)CN1CCN(CC(=O)O)CCN(CC(=O)*)CCN(CC(=O)O)CC1; Trp(5-Cl) = N[C@@H](Cc1c[nH]c2ccc(Cl)cc12)C(=O)O; Pyridine(2,6-diCH2) = c1cc(C[*:1])nc(C[*:2])c1; Pro(4R-NH2) = N[C@H]1CN[C@H](C(=O)O)C1; Glutaryl = O=C(CCCC(=O)[*:2])[*:1]; X1 = O=C(CN1CCC(N[*:1])CC1)[*:2]; Api = NC1(C(=O)O)CCNCC1

Biological target: T1, human GIP receptor (bioGIPR) (Homo sapiens, UniProt P48546)
T1 construct: Biotinylate extracellular of the human GIP receptor (bioGIPR, Proteros biostructures GmbH, lot #02/2b); purchased Proteros biostructures GmbH lot #02/2b
T1 sequence (P48546 22-138 limits assumed): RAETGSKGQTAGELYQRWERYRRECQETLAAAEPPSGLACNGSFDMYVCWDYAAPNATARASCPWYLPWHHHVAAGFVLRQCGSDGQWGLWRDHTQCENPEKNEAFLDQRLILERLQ
Assay: Surface plasmon resonance (SPR) based binding assay
Details: Single Cycle Kinetic mode, 25° C.
Method in brief: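 Binding was measured at 25 °C by single-cycle kinetics against a reference flow cell, with blank-run and drift correction, after capturing biotinylated GIPR extracellular domain to ~3500 RU. Running buffer: HBST, 0.1% DMSO. A 1:1 Langmuir model gave kinetic rates, KD, t1/2 and pKD.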

CC[C@H](C)[C@@H]1NC(=O)[C@H](CC(C)C)NC(=O)C2(CCN(C(=O)CN3CCN(CC(=O)O)CCN(CC(=O)O)CCN(CC(=O)O)CC3)CC2)NC(=O)[C@@H](NC(=O)[C@@H](CC(C)C)NC(=O)[C@H](CCC(=O)O)NC(=O)[C@@H]2C[C@@H](N)CN2C(=O)[C@H](Cc2c[nH]c3ccc(Cl)cc23)NC(=O)[C@H](Cc2c[nH]c3ccccc23)NC(=O)[C@H](CC(=O)O)NC(=O)CCCC(=O)NC[C@H](O)[C@@H](O)[C@H](O)[C@H](O)CO)CSCc2cccc(n2)CSC[C@@H](C(=O)NC2CCN(CC(=O)N[C@H](CCC(=O)NC[C@H](O)[C@@H](O)[C@H](O)[C@H](O)CO)C(N)=O)CC2)NC1=O [GIP-001, AGLU-Glutar-Asp-Trp-5Clw-Tap-Glu-leu-[Cys(2Lut)-Apc(DOTA)-Leu-Ile-Cys]-APAc-glu(AGLU)-NH2] ({NH(1-deoxy-D-glucityl)-Glutaryl}-DW[Trp(5-Cl)][Pro(4R-NH2)]E[dL]C[Api](DOTA)LIC[X1][dE](NH(1-deoxy-D-glucityl))-NH2; linker 7-11 via Pyridine(2,6-diCH2))
t1/2 Category (SPR dissociation half-life): A (t1/2 values>15 min)
Kd (SPR, 1:1 Langmuir binding model, read-out: pKD Category (converted)): < 1 nM
